Counter-ions that a name gives are not always drawn.
Experiments:
[1] = tested on: OCI-AML3 cells; experiment: Proliferation assay (spheroid growth, 8 days), OCI-AML3; assay type: cell-based, human; details: Homo sapiens, OCI-AML-3, […], OCI-AML3, 8 days
In short: (§1)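 IC50 values derive from day-8 spheroid confluence, normalized between DMSO-treated wells and the highest dose of a reference compound, fitted with a variable slope. Cells grew 8 days at 37° C under a compound concentration series in 0.3% DMSO.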

[2] = biological target: menin/MLL (terbium chelate-labeled menin, FITC-MBM1 peptide) (Homo sapiens (Human), UniProt O00255); experiment: Menin/MLL homogenous time-resolved fluorescence (HTRF) assay; assay type: binding; details: HTRF-30 min incubation IC50, 30 min incubation;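 note: IC50 from percent inhibition of HTRF signal, normalized between wells without competitor and wells with a saturating competitor that displaces FITC-MBM1 from His-tagged menin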
Sequence of menin/MLL (terbium chelate-labeled menin, FITC-MBM1 peptide) (O00255 other isoform, or with tags, fused parts or gaps): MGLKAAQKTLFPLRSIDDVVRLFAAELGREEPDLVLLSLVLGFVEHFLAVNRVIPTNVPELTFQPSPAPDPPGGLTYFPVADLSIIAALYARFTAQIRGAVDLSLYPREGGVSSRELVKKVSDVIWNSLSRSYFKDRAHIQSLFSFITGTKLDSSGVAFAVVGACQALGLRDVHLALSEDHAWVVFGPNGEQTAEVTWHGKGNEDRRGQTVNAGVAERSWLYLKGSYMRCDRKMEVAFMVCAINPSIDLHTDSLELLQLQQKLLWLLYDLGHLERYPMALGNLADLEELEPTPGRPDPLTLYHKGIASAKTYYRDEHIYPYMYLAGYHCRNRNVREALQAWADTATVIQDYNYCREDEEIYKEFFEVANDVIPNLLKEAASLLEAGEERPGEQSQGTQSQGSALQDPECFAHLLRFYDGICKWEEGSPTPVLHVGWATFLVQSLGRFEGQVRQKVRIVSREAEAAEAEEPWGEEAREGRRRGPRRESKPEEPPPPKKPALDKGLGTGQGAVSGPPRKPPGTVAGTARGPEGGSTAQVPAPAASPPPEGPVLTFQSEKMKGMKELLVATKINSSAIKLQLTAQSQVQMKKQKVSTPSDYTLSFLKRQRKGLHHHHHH

[3] = tested on: KO-52 cells; experiment: Proliferation assay (spheroid growth, 8 days), KO-52 control cell line; assay type: cell-based, human; details: Homo sapiens, […], read-out: spheroid assay_OneTime KO-52 IC50
In short: as §1

[4] = tested on: MEIS1 mRNA; experiment: MEIS1 mRNA expression assay (Quantigene Singleplex) in MOLM14 cells; assay type: cell-based, human; details: Homo sapiens, MOLM-14, 48 h, 48 hours incubation;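 note: MEIS1 transcript levels read by probe hybridization and normalized to RPL28 mRNA, with IC50 fitted to fold changes across a rising compound concentration series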
[5] = tested on: MOLM14 cells; experiment: Proliferation assay (spheroid growth, 8 days), MOLM14; assay type: cell-based, human; details: Homo sapiens, MOLM-14, […], MOLM14, 8 days; read-out: spheroid assay_OneTime MOLM14 IC50;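 note: spheroid size read as confluence by live-cell imaging, compounds added at a range of concentrations with 0.3% DMSO, DMSO-treated wells = 0%, highest reference dose = low control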

| Compound | IC50 [1] [nM] | IC50 [2] [nM] | IC50 [4] [nM] | IC50 [5] [nM] | IC50 [3] [nM] |
| --- | --- | --- | --- | --- | --- |
| CCN(C(=O)c1cc(F)ccc1Oc1nncnc1N1CCC2(C1)CN([C@H](CCCNCC(CO)OC)C(C)C)C2)C(C)C (stereo partly drawn) [Compound 168, N-ethyl-5-fluoro-2-((5-(2-((3R)-6-((3-hydroxy-2-methoxypropyl)amino)-2-methylhexan-3-yl)-2,6-diazaspiro[3.4]octan-6-yl)-1,2,4-triazin-6-yl)oxy)-N-isopropylbenzamide] | 370 | 0.1 | 74 | 49 | > 15000 |
| CCN(C(=O)c1cc(F)ccc1Oc1nncnc1N1CCC2(C1)CN([C@H](CCN(C)CCOC)C(C)C)C2)C(C)C (single isomer, unassigned) [Compound 276, (*R)—N-ethyl-5-fluoro-N-isopropyl-2-((5-(2-(1-((2-methoxyethyl)(methyl)amino)-4-methylpentan-3-yl)-2,6-diazaspiro[3.4]octan-6-yl)-1,2,4-triazin-6-yl)oxy)benzamide] | 1610 | 0.5 | 390 | 240 | > 15000 |
| CCN(C(=O)c1cc(F)ccc1Oc1nncnc1N1CCC2(C1)CN([C@H](CCN(C)CCCOC)C(C)C)C2)C(C)C (single isomer, unassigned) [Compound 275, (*R)—N-ethyl-5-fluoro-N-isopropyl-2-((5-(2-(1-((3-methoxypropyl)(methyl)amino)-4-methylpentan-3-yl)-2,6-diazaspiro[3.4]octan-6-yl)-1,2,4-triazin-6-yl)oxy)benzamide] | 330 | 0.66 | 100 | 78 | > 15000 |
| CCN(C(=O)c1cc(F)ccc1Oc1nncnc1N1CCC2(C1)CN([C@H](CCCN(C)[C@@H](C)CC(=O)N(C)C)C(C)C)C2)C(C)C (single isomer, unassigned) [Compound 185, 2-((5-(2-((R)-6-(((*S)-4-(dimethylamino)-4-oxobutan-2-yl)(methyl)amino)-2-methylhexan-3-yl)-2,6-diazaspiro[3.4]octan-6-yl)-1,2,4-triazin-6-yl)oxy)-N-ethyl-5-fluoro-N-isopropylbenzamide fumarate] | 61 | 0.2 | 44 | 79 | 1700 |

The next compounds have a lower IC50 [1] than those just listed; values first:

| IC50 [1] [nM] | IC50 [2] [nM] | IC50 [4] [nM] | IC50 [5] [nM] | Compound | IC50 [3] [nM] |
| --- | --- | --- | --- | --- | --- |
| 37 | 0.097 | 10 | 11 | CC(C)[C@@H](C[C@@H](O)CN(C)C)N1CC2(CCN(c3ncnnc3Oc3ccc(F)cc3C(=O)N(C(C)C)C(C)C)C2)C1 (single isomer, unassigned) [Compound 365, 2-((5-(2-((3*R,5*R)-6-(dimethylamino)-5-hydroxy-2-methylhexan-3-yl)-2,6-diazaspiro[3.4]octan-6-yl)-1,2,4-triazin-6-yl)oxy)-5-fluoro-N,N-diisopropylbenzamide fumarate] | > 15000 |
| 26 | 0.096 | ~19 | 13 | CCN(C(=O)c1cc(F)ccc1Oc1nncnc1N1CCC2(C1)CN([C@H](CCCN[C@H](CO)COC)C(C)C)C2)C(C)C [Compound 162, N-ethyl-5-fluoro-2-((5-(2-((R)-6-(((R)-1-hydroxy-3-methoxypropan-2-yl)amino)-2-methylhexan-3-yl)-2,6-diazaspiro[3.4]octan-6-yl)-1,2,4-triazin-6-yl)oxy)-N-isopropylbenzamide] | > 15000 |
| 12 | 0.1 | ~17 | 10 | CCN(C(=O)c1cc(F)ccc1Oc1nncnc1N1CCC2(C1)CN([C@H](CCCNC(COC)COC)C(C)C)C2)C(C)C [Compound 159, (R)-2-((5-(2-(6-((1,3-dimethoxypropan-2-yl)amino)-2-methylhexan-3-yl)-2,6-diazaspiro[3.4]octan-6-yl)-1,2,4-triazin-6-yl)oxy)-N-ethyl-5-fluoro-N-isopropylbenzamide fumarate] | 6300 |

From US12473295B2, “Substituted straight chain spiro derivatives” (Janssen Pharmaceutica NV, priority 2019, dated 2025)
